{"source": "paper PMC7754465", "about": "“Multiparameter Kinetic Analysis for Covalent Fragment Optimization by Using Quantitative Irreversible Tethering (qIT)” (Chembiochem, 2020)", "test": "qIT: rate of reaction with glutathione (intrinsic reactivity)", "type": "physicochemical", "conditions": "fragment 0.5 mM, glutathione 5 μM", "experimental": "Previously we described a fluorescence‐based platform for screening cysteine‐targeting covalent fragments called quantitative irreversible tethering (qIT). ^[19] The method measures and compares the rate of reactions of individual fragments with the protein‐of‐interest (POI) and GSH (Figure 2a and b).\nFigure 2 Comparison of previous and current applications of Quantitative irreversible tethering (qIT). a) Overview of rate determination. A cysteine‐containing biomolecule is treated with covalent fragments under pseudo‐first‐order conditions. Reaction progress is followed by discrete measurement of free cysteine concentration by using the fluorogenic probe CPM, and rate constants (k obs) are derived from exponential regression analysis. b) Comparison of the reactivity profile of each fragment with the POI and GSH typically classes them as unreactive, reactive but non‐selective or reactive and selective. c) Quantification of kinetic POI/GSH selectivity facilitates hit identification. d) The observed rate of reaction between the POI and hit fragment is determined at a range of ligand concentrations by using qIT. Subsequent hyperbolic regression analysis is used to derive K i and k inact to facilitate comprehensive covSAR analysis. […]"}
{"smiles": "C=CC(=O)N1CCCc2cc(C(=O)OC)ccc21", "note": "[compound 1]", "values": [{"measurement": "GSH: kobs/[I]", "value": 0.02, "unit": "M⁻¹ s⁻¹"}]}
